# Test results: patent US20230085307A1, “PYRIDAZINONE COMPOUND AND HERBICIDE” (NISSAN CHEMICAL CORPORATION, priority 2019, published 2023)
# Assays:
# Japanese bulrush [1] = assay: Test Example 1: herbicidal activity, application before weed generation under submerged conditions (Table 16, symbol B); assay type: in vivo, Japanese bulrush (Schoenoplectus juncoides); details: amount of applied herbicide 320 g/ha
# Summary of the method: (§1)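 Submerged Wagner pots (alluvial soil, 4 cm water) sown with weed seeds and planted with 2.5-leaf rice seedlings; emulsifiable concentrate diluted in water applied to water surface on sowing day. Held in greenhouse at 25-30 °C; injury scored 0-5 by herbicidal rate after three weeks.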
# southern crabgrass [2] = assay: Test Example 5: herbicidal effect by foliage application, plastic box (Table 20, symbol F); assay type: in vivo, southern crabgrass (Digitaria ciliaris); details: foliage application, 320 g/ha, three weeks after application
# Summary of the method: (§2)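 Foliar spray test: emulsion formulation diluted in water to a set application rate, sprayed onto 14-day-old plants raised in diluvial soil at 25° C to 30° C under glass. Both herbicidal effect and crop effect rated visually three weeks later.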
# green foxtail [3] = assay: Test Example 5: herbicidal effect by foliage application, plastic box (Table 20, symbol G); assay type: in vivo, green foxtail (Setaria viridis); details: foliage application, 320 g/ha, three weeks after application
# Summary of the method: as §2
# lambsquarters [4] = assay: Test Example 4: herbicidal effect by soil treatment (Table 19, symbol O); assay type: in vivo, lambsquarters (Chenopodium album); details: amount of applied herbicide 320 g/ha
# Summary of the method: (§3)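 Step 1: sow seeds in sterilized diluvial soil, cover ~1.5 cm. Step 2: spray diluted emulsion onto soil surface at predetermined rate. Step 3: greenhouse, 25–30° C, three weeks. Step 4: grade effect on each plant by earlier criteria.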
# lambsquarters [5] = assay: Test Example 5: herbicidal effect by foliage application, plastic box (Table 20, symbol O); assay type: in vivo, lambsquarters (Chenopodium album); details: foliage application, 320 g/ha, three weeks after application
# Summary of the method: as §2
# Chinese sprangletop = assay: Test Example 3: herbicidal effect by foliage application, Wagner pot (Table 18, symbol D); assay type: in vivo, chinese sprangletop (Leptochloa chinensis); details: amount of applied herbicide 320 g/ha
# Summary of the method: (§4)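 Plants were sown in alluvial soil held under 0.1–0.5 cm standing water and grown 14 days in a greenhouse at 25–30 °C. An emulsifiable formulation, water-diluted to the set dose, was then sprayed onto the foliage, and effects were scored three weeks later using previously defined criteria.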
# oval-leafed pondweed [6] = assay: Test Example 2: herbicidal activity, application during weed generation under submerged conditions (Table 17, symbol C); assay type: in vivo, oval-leafed pondweed (Monochoria vaginalis); details: AAH 320 g/ha; application during weed generation, submerged conditions
# Summary of the method: (§5)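 Effect on each weed is rated three weeks post-treatment, using the same scoring criteria as the preceding test. Plants grow from mixed-sown seed in flooded alluvial soil (4 cm water) at 25° C. to 30° C., and are treated at one to two leaves with diluted emulsion dropped onto the water.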
# velvetleaf [7] = assay: Test Example 5: herbicidal effect by foliage application, plastic box (Table 20, symbol M); assay type: in vivo, velvetleaf (Abutilon theophrasti); details: foliage application, 320 g/ha, three weeks after application
# Summary of the method: as §2
# Japanese bulrush [8] = assay: Test Example 2: herbicidal activity, application during weed generation under submerged conditions (Table 17, symbol B); assay type: in vivo, Japanese bulrush (Schoenoplectus juncoides); details: AAH 320 g/ha; application during weed generation, submerged conditions
# Summary of the method: as §5
# redroot pigweed [9] = assay: Test Example 5: herbicidal effect by foliage application, plastic box (Table 20, symbol N); assay type: in vivo, redroot pigweed (Amaranthus retroflexus); details: foliage application, 320 g/ha, three weeks after application
# Summary of the method: as §2
# barnyard grass [10] = assay: Test Example 5: herbicidal effect by foliage application, plastic box (Table 20, symbol H); assay type: in vivo, barnyard grass (Echinochloa crus-galli); details: foliage application, 320 g/ha, three weeks after application
# Summary of the method: as §2
# redroot pigweed [11] = assay: Test Example 4: herbicidal effect by soil treatment (Table 19, symbol N); assay type: in vivo, redroot pigweed (Amaranthus retroflexus); details: amount of applied herbicide 320 g/ha
# Summary of the method: as §3
# velvetleaf [12] = assay: Test Example 4: herbicidal effect by soil treatment (Table 19, symbol M); assay type: in vivo, velvetleaf (Abutilon theophrasti); details: amount of applied herbicide 320 g/ha
# Summary of the method: as §3
# barnyard grass [13] = assay: Test Example 3: herbicidal effect by foliage application, Wagner pot (Table 18, symbol H); assay type: in vivo, barnyard grass (Echinochloa crus-galli); details: amount of applied herbicide 320 g/ha
# Summary of the method: as §4
# southern crabgrass [14] = assay: Test Example 4: herbicidal effect by soil treatment (Table 19, symbol F); assay type: in vivo, southern crabgrass (Digitaria ciliaris); details: amount of applied herbicide 320 g/ha
# Summary of the method: as §3
# green foxtail [15] = assay: Test Example 4: herbicidal effect by soil treatment (Table 19, symbol G); assay type: in vivo, green foxtail (Setaria viridis); details: amount of applied herbicide 320 g/ha
# Summary of the method: as §3
# oval-leafed pondweed [16] = assay: Test Example 1: herbicidal activity, application before weed generation under submerged conditions (Table 16, symbol C); assay type: in vivo, oval-leafed pondweed (Monochoria vaginalis); details: amount of applied herbicide 320 g/ha
# Summary of the method: as §1
# barnyard grass [17] = assay: Test Example 4: herbicidal effect by soil treatment (Table 19, symbol H); assay type: in vivo, barnyard grass (Echinochloa crus-galli); details: amount of applied herbicide 320 g/ha
# Summary of the method: as §3
# late watergrass [18] = assay: Test Example 2: herbicidal activity, application during weed generation under submerged conditions (Table 17, symbol A); assay type: in vivo, late watergrass (Echinochloa oryzicola); details: AAH 320 g/ha; application during weed generation, submerged conditions
# Summary of the method: as §5
# late watergrass [19] = assay: Test Example 1: herbicidal activity, application before weed generation under submerged conditions (Table 16, symbol A); assay type: in vivo, late watergrass (Echinochloa oryzicola); details: amount of applied herbicide 320 g/ha
# Summary of the method: as §1
compound,measurement,setting,value
COCCOc1ccc(-c2sc3ccc(F)cc3c2-c2c(O)cnn(C)c2=O)cc1 [2-441],"Herbicidal effect, B: Japanese bulrush",Japanese bulrush [1],3 (Herbicidal rate of 40% or more and less than 70%)
same,"F: southern crabgrass, herbicidal effect grade",southern crabgrass [2],4 (Herbicidal rate of 70% or more and less than 90%)
same,"G: green foxtail, herbicidal effect grade",green foxtail [3],5 (Herbicidal rate of 90% or more (almost completely withered))
same,"herbicidal effect, O: lambsquarters",lambsquarters [4],4 (Herbicidal rate of 70% or more and less than 90%)
same,"O: lambsquarters, herbicidal effect grade",lambsquarters [5],5 (Herbicidal rate of 90% or more (almost completely withered))
same,herbicidal effect on D: Chinese sprangletop,Chinese sprangletop,0 (Herbicidal rate of 5% or less (almost no effect))
same,"herbicidal effect rating, C: oval-leafed pondweed",oval-leafed pondweed [6],0 (Herbicidal rate of 5% or less (almost no effect))
same,"M: velvetleaf, herbicidal effect grade",velvetleaf [7],5 (Herbicidal rate of 90% or more (almost completely withered))
same,"herbicidal effect rating, B: Japanese bulrush",Japanese bulrush [8],0 (Herbicidal rate of 5% or less (almost no effect))
same,"N: redroot pigweed, herbicidal effect grade",redroot pigweed [9],5 (Herbicidal rate of 90% or more (almost completely withered))
same,"H: barnyard grass, herbicidal effect grade",barnyard grass [10],5 (Herbicidal rate of 90% or more (almost completely withered))
same,"herbicidal effect, N: redroot pigweed",redroot pigweed [11],4 (Herbicidal rate of 70% or more and less than 90%)
same,"herbicidal effect, M: velvetleaf",velvetleaf [12],1 (Herbicidal rate of 5% or more and less than 20%)
same,herbicidal effect on H: barnyard grass,barnyard grass [13],5 (Herbicidal rate of 90% or more (almost completely withered))
same,"herbicidal effect, F: southern crabgrass",southern crabgrass [14],0 (Herbicidal rate of 5% or less (almost no effect))
same,"herbicidal effect, G: green foxtail",green foxtail [15],0 (Herbicidal rate of 5% or less (almost no effect))
same,"Herbicidal effect, C: oval-leafed pondweed",oval-leafed pondweed [16],3 (Herbicidal rate of 40% or more and less than 70%)
same,"herbicidal effect, H: barnyard grass",barnyard grass [17],0 (Herbicidal rate of 5% or less (almost no effect))
same,"herbicidal effect rating, A: late watergrass",late watergrass [18],3 (Herbicidal rate of 40% or more and less than 70%)
same,"Herbicidal effect, A: late watergrass",late watergrass [19],3 (Herbicidal rate of 40% or more and less than 70%)
COCCOCc1ccc(-c2sc3ccc(F)cc3c2-c2c(O)c(C)nn(C)c2=O)cc1 [2-445],"Herbicidal effect, B: Japanese bulrush",Japanese bulrush [1],0 (Herbicidal rate of 5% or less (almost no effect))
same,"F: southern crabgrass, herbicidal effect grade",southern crabgrass [2],5 (Herbicidal rate of 90% or more (almost completely withered))
same,"G: green foxtail, herbicidal effect grade",green foxtail [3],5 (Herbicidal rate of 90% or more (almost completely withered))
same,"herbicidal effect, O: lambsquarters",lambsquarters [4],4 (Herbicidal rate of 70% or more and less than 90%)
same,"O: lambsquarters, herbicidal effect grade",lambsquarters [5],5 (Herbicidal rate of 90% or more (almost completely withered))
same,"herbicidal effect rating, C: oval-leafed pondweed",oval-leafed pondweed [6],0 (Herbicidal rate of 5% or less (almost no effect))
same,"M: velvetleaf, herbicidal effect grade",velvetleaf [7],5 (Herbicidal rate of 90% or more (almost completely withered))
same,"herbicidal effect rating, B: Japanese bulrush",Japanese bulrush [8],0 (Herbicidal rate of 5% or less (almost no effect))
same,"N: redroot pigweed, herbicidal effect grade",redroot pigweed [9],5 (Herbicidal rate of 90% or more (almost completely withered))
same,"H: barnyard grass, herbicidal effect grade",barnyard grass [10],5 (Herbicidal rate of 90% or more (almost completely withered))
same,"herbicidal effect, N: redroot pigweed",redroot pigweed [11],5 (Herbicidal rate of 90% or more (almost completely withered))
same,"herbicidal effect, M: velvetleaf",velvetleaf [12],3 (Herbicidal rate of 40% or more and less than 70%)
same,"herbicidal effect, F: southern crabgrass",southern crabgrass [14],5 (Herbicidal rate of 90% or more (almost completely withered))
same,"herbicidal effect, G: green foxtail",green foxtail [15],5 (Herbicidal rate of 90% or more (almost completely withered))
same,"Herbicidal effect, C: oval-leafed pondweed",oval-leafed pondweed [16],0 (Herbicidal rate of 5% or less (almost no effect))
same,"herbicidal effect, H: barnyard grass",barnyard grass [17],4 (Herbicidal rate of 70% or more and less than 90%)
same,"herbicidal effect rating, A: late watergrass",late watergrass [18],3 (Herbicidal rate of 40% or more and less than 70%)
same,"Herbicidal effect, A: late watergrass",late watergrass [19],3 (Herbicidal rate of 40% or more and less than 70%)
